Laboratory results taken from paper PMC7401273, “Unexpected Enhancement of HDACs Inhibition by MeS Substitution at C-2 Position of Fluoro Largazole” (Marine Drugs, 2020).
Like-named read-outs stand apart in the source and are kept apart here.

Columns and labels:
[1] = target: T1, recombinant human HDAC1 (Homo sapiens, UniProt Q13547); design: method as in PMID 31163697; conditions: previously reported data, cited from earlier work; for Selectivity (HDAC1/6): selectivity of HDAC1 over HDAC6
T1 construct: purchased BPS Biosciences
T1 sequence (Q13547 whole entry): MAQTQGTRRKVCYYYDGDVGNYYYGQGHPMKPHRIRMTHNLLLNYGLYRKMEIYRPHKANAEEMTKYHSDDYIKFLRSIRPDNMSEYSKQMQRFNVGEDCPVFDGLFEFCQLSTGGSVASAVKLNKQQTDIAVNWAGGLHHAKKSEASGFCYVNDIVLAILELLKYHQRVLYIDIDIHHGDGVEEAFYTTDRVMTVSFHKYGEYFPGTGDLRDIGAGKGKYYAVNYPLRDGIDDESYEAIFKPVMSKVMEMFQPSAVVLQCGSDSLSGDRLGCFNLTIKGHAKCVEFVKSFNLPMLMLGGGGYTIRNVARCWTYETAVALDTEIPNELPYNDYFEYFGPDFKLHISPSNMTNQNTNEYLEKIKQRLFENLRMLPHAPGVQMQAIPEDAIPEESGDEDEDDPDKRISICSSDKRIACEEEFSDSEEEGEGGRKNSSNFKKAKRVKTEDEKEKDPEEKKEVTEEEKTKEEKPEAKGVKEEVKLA

[2] = target: T2, recombinant human HDAC2 (Homo sapiens, UniProt Q92769); design: method as in PMID 31163697; conditions: previously reported data; cited from earlier work
T2 construct: purchased BPS Biosciences
T2 sequence (Q92769 whole entry): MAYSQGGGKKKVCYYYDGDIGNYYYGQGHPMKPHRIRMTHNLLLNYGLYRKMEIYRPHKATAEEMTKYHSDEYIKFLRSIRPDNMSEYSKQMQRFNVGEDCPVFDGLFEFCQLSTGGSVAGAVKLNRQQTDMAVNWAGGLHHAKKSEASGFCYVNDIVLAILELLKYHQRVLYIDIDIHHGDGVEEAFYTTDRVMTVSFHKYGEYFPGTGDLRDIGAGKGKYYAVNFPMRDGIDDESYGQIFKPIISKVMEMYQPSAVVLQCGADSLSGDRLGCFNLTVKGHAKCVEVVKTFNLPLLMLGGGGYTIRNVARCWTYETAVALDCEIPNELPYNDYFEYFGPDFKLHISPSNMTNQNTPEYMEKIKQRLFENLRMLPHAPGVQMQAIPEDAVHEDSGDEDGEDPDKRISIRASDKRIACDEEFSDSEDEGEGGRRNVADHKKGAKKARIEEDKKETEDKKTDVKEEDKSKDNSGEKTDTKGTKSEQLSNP

[3] = target: T3, recombinant human HDAC3 (Homo sapiens, UniProt O15379); design: method as in PMID 31163697; conditions: previously reported data; cited from earlier work
T3 construct: purchased BPS Biosciences
T3 sequence (O15379 whole entry): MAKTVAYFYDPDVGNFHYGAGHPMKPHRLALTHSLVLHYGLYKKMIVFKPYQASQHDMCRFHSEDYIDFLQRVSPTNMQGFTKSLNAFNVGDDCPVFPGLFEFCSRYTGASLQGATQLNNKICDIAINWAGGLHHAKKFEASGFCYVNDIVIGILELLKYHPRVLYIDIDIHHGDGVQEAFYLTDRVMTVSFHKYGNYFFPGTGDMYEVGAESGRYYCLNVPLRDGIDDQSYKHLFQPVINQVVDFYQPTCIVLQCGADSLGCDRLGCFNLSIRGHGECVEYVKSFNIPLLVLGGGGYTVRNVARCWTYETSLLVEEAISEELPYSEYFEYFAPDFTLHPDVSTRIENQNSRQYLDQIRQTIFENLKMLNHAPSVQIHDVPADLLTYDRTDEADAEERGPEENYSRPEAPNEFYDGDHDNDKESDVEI
T3 sequence (Q9Y618 395-489 partner limits assumed): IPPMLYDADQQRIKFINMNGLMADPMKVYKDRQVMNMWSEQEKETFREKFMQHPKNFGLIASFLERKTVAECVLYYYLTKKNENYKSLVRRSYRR

[4] = target: T4, recombinant human HDAC8 (Homo sapiens, UniProt Q9BY41); design: method as in PMID 31163697; conditions: previously reported data; cited from earlier work
T4 construct: purchased BPS Biosciences
T4 sequence (Q9BY41 1-377): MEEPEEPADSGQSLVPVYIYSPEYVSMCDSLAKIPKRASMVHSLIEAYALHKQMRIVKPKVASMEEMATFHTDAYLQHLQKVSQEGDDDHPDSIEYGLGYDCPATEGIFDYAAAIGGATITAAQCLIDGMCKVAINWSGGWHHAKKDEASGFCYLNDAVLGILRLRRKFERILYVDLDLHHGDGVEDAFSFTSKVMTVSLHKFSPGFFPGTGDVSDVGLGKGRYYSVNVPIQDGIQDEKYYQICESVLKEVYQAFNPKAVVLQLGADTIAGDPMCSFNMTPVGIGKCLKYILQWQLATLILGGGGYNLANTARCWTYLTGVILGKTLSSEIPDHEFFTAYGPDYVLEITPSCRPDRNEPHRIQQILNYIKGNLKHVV

[5] = target: T5, recombinant human HDAC6 (Homo sapiens, UniProt Q9UBN7); design: method as in PMID 31163697; conditions: previously reported data; cited from earlier work
T5 construct: purchased BPS Biosciences
T5 sequence (Q9UBN7 1-1215): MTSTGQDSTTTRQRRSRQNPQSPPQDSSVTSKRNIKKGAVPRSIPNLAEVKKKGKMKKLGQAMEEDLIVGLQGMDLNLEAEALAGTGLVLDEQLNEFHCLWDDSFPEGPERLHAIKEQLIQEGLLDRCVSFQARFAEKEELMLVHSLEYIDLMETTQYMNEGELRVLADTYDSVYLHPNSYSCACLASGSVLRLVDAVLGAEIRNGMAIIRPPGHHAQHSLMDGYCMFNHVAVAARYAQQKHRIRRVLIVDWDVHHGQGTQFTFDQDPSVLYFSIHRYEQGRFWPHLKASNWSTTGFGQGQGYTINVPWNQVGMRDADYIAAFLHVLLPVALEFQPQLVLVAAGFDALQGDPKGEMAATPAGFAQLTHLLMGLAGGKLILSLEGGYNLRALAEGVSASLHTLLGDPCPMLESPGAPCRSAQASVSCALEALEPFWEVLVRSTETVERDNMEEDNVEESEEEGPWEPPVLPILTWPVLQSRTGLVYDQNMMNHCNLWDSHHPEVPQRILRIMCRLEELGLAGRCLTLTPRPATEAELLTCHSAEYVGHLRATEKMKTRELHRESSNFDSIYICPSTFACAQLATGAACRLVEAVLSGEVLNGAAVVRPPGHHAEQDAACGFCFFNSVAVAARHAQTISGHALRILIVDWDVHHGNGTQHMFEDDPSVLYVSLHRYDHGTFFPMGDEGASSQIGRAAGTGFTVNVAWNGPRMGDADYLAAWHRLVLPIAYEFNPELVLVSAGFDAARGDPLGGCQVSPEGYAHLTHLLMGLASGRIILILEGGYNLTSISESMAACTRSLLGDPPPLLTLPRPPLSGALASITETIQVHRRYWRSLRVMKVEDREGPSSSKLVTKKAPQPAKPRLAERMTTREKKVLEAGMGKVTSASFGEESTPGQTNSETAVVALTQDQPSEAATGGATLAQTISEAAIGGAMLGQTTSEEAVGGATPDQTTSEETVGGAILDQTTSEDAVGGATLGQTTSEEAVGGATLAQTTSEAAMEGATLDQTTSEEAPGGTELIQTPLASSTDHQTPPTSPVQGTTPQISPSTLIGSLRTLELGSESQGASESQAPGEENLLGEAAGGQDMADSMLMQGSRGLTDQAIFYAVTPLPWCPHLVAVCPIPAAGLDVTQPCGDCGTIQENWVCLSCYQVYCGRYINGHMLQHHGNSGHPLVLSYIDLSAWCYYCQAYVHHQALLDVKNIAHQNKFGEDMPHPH

[6] = target: T1, recombinant human HDAC1; test: recombinant human HDAC1 enzymatic assay; assay type: biochemical; conditions: 10-dose IC50 mode in duplicate, three-fold serial dilution
Method: (§1) The assays were carried out by Shanghai ChemPartner Co., Ltd (Shanghai, China), according to our previous method. Briefly, different concentrations of compounds were incubated with recombinant human HDAC1, HDAC2, HDAC3, HDAC6 and HDAC8 (BPS Biosciences, San Diego, CA, USA) at room temperature for 15 min, which was followed by adding Ac-peptide-AMC substrates to initiate the reaction in Tris-based assay buffer. Reaction mixtures were incubated at room temperature for 60 min in HDAC1, HDAC2, HDAC3 and HDAC6 assays, and were incubated for 240 min in HDAC8 assay. Then, the stop solution containing trypsin was added. The coupled reaction was incubated for another 90 min at 37 °C. Fluorescent AMC released from substrate was measured in SynergyMx (BioTek, Winooski, VT, US) using filter sets as excitation = 355 nm and emission = 460 nm. IC50 values were calculated by GraphPad Prism software (7.0 version., GraphPad Software, San Diego, CA, USA).

[7] = target: T2, recombinant human HDAC2; test: recombinant human HDAC2 enzymatic assay; assay type: biochemical; conditions: 10-dose IC50 mode in duplicate, three-fold serial dilution
Method: The assays were carried out by Shanghai ChemPartner Co., Ltd (Shanghai, China), according to our previous method [23, 24]. Briefly, different concentrations of compounds were incubated with recombinant human HDAC1, HDAC2, HDAC3, HDAC6 and HDAC8 (BPS Biosciences, San Diego, CA, USA) at room temperature for 15 min, which was followed by adding Ac-peptide-AMC substrates to initiate the reaction in Tris-based assay buffer. Reaction mixtures were incubated at room temperature for 60 min in HDAC1, HDAC2, HDAC3 and HDAC6 assays, and were incubated for 240 min in HDAC8 assay. Then, the stop solution containing trypsin was added. The coupled reaction was incubated for another 90 min at 37 °C. Fluorescent AMC released from substrate was measured in SynergyMx (BioTek, Winooski, VT, US) using filter sets as excitation = 355 nm and emission = 460 nm. IC50 values were calculated by GraphPad Prism software (7.0 version., GraphPad Software, San Diego, CA, USA).

[8] = target: T3, recombinant human HDAC3; test: recombinant human HDAC3 enzymatic assay; assay type: biochemical; conditions: 10-dose IC50 mode in duplicate, three-fold serial dilution
Method: as §1

[9] = target: T4, recombinant human HDAC8; test: recombinant human HDAC8 enzymatic assay; assay type: biochemical; conditions: 10-dose IC50 mode in duplicate, three-fold serial dilution
Method: as §1

[10] = target: T5, recombinant human HDAC6; test: recombinant human HDAC6 enzymatic assay; assay type: biochemical; conditions: 10-dose IC50 mode in duplicate, three-fold serial dilution
Method: as §1

[11] = test system: A549 cells; test: in vitro growth inhibition (MTT), A549 cells; assay type: cell-based; conditions: Homo sapiens, 72 h, at least seven-dose, duplicate
Method: (§2) Eca-109, Bel 7402 and U937 cell lines were purchased from ATCC (Manassas, VA, USA), and the other tested cell lines were obtained from the Shanghai Institute for Biological Sciences, Chinese Academy of Sciences (Shanghai, China). MDA-MB-231, Hela, Eca-109 and Bel 7402 cells were cultured in DMEM medium supplemented with 10% heat-inactivated fetal bovine serum, 100 U/mL penicillin and 100 μg/mL streptomycin (Beyotime Biotech, Shanghai, China). A549 cells were cultured in F-12K medium supplemented with 10% heat-inactivated fetal bovine serum, 100 U/mL penicillin and 100 μg/mL streptomycin. HCT116 and SK-OV-3 cells were cultured in McCoy’s 5A medium supplemented with 10% heat-inactivated fetal bovine serum, 100 U/mL penicillin and 100 μg/mL streptomycin. U937 cells were cultured in RPMI-1640 medium supplemented with 10% heat inactivated fetal bovine serum, 100 U/mL penicillin and 100 μg/mL streptomycin. All cells were cultured at 37 °C in humidified air containing 5% CO2. According to our previous method, A549, HCT116, MDA-MB-231, SK-OV-3, Hela, Eca-109, Bel 7403 and U937 (600,000 cells/well) were seeded in 96-well plates and incubated for 24 h before being treated with various concentration of compounds or solvent control. Cells were further incubated for 72 h and then treated with MTT and incubated for another 3 h. The media was then removed and 100 μL DMSO was added to each well. The absorbance at 550 nm was measured by a SpectraMAX340 microplate reader (Molecular Devices, San Jose, CA, USA) with a reference wavelength at 690 nm. Adriamycin was used as a positive control in the assay.

[12] = test system: HCT116 cells; test: in vitro growth inhibition (MTT), HCT116 cells; assay type: cell-based; conditions: Homo sapiens, HCT-116, 72 h, at least seven-dose, duplicate
Method: as §2

[13] = test system: MDA-MB-231 cells; test: in vitro growth inhibition (MTT), MDA-MB-231 cells; assay type: cell-based; conditions: Homo sapiens, 72 h, at least seven-dose, duplicate
Method: as §2

[14] = test system: SK-OV-3 cells; test: in vitro growth inhibition (MTT), SK-OV-3 cells; assay type: cell-based; conditions: Homo sapiens, 72 h, at least seven-dose, duplicate
Method: as §2

[15] = test system: Hela cells; test: in vitro growth inhibition (MTT), Hela cells; assay type: cell-based; conditions: Homo sapiens, 72 h, at least seven-dose, duplicate
Method: as §2, with “Cells were further incubated for 72 h and then treated with MTT and incubated for another 3 h. The media was then removed and 100 μL DMSO was added to each well.” left out, “Adriamycin was used as a positive control in the assay.” left out

[16] = test system: Eca-109 cells; test: in vitro growth inhibition (MTT), Eca-109 cells; assay type: cell-based; conditions: Homo sapiens, 72 h, at least seven-dose, duplicate
Method: as §2, with “Cells were further incubated for 72 h and then treated with MTT and incubated for another 3 h. The media was then removed and 100 μL DMSO was added to each well.” left out, “Adriamycin was used as a positive control in the assay.” left out

[17] = test system: Bel 7402 cells; test: in vitro growth inhibition (MTT), Bel 7402 cells; assay type: cell-based; conditions: Homo sapiens, 72 h, at least seven-dose, duplicate
Method: as §2, with “Cells were further incubated for 72 h and then treated with MTT and incubated for another 3 h. The media was then removed and 100 μL DMSO was added to each well.” left out, “Adriamycin was used as a positive control in the assay.” left out

[18] = test system: U937 cells; test: in vitro growth inhibition (MTT), U937 cells; assay type: cell-based; conditions: Homo sapiens, U-937, 72 h, at least seven-dose, duplicate
Method: as §2, with “Cells were further incubated for 72 h and then treated with MTT and incubated for another 3 h. The media was then removed and 100 μL DMSO was added to each well.” left out, “Adriamycin was used as a positive control in the assay.” left out

[19] = test system: A549, HCT116 and SK-OV-3 cells; test: in vitro growth inhibition (MTT), range over three cell lines; assay type: cell-based; conditions: towards A549, HCT116 and SK-OV-3 cells
Method: as §2, with “Cells were further incubated for 72 h and then treated with MTT and incubated for another 3 h. The media was then removed and 100 μL DMSO was added to each well.” left out, “Adriamycin was used as a positive control in the assay.” left out

SMILES | IC50 [1] [µM] | Selectivity (HDAC1/6) [1] | IC50 [2] [µM] | IC50 [3] [µM] | IC50 [4] [µM] | IC50 [5] [µM] | IC50 [11] [µM] | IC50 [12] [µM] | IC50 [13] [µM] | IC50 [14] [µM] | IC50 [15] [µM] | IC50 [16] [µM] | IC50 [17] [µM] | IC50 [18] [µM] | further results
CC(C)C1NC(=O)C2(C)CSC(=N2)c2csc(n2)CNC(=O)CC(C(F)=CCCS)OC1=O (centres unmarked) [Compound 15a] | 0.00439 ± 0.00017 | 68 | 0.021 ± 0.0003 | 0.0392 ± 0.0023 | 0.00838 ± 0.00246 | 0.3 ± 0.005 |  |  |  |  |  |  |  |  | 
CC12CSC(=N1)c1csc(n1)CNC(=O)CC(C(F)=CCCS)OC(=O)C(Cc1ccccc1)NC2=O (centres unmarked) [Compound 15b] | 0.00424 ± 0.00038 | 80 | 0.0163 ± 0.0004 | 0.0371 ± 0.0008 | 0.0175 ± 0.0042 | 0.338 ± 0.017 |  |  |  |  |  |  |  |  | 
CSCC1NC(=O)C2(C)CSC(=N2)c2csc(n2)CNC(=O)CC(C(F)=CCCS)OC1=O [Compound 15c, (1^2Z,2^2Z,2^4R,8S)-8-((Z)-1-fluoro-4-mercaptobut-1-en-1-yl)-2^4-methyl-5-((methylthio)methyl)-2^4,2^5-dihydro-7-oxa-4,11-diaza-1(4,2),2(2,4)-dithiazolacyclododecaphane-3,6,10-trione] |  |  |  |  |  |  |  |  |  |  |  |  |  |  | IC50 [6]: 0.00027 ± 2e-05 µM; IC50 [7]: 0.00133 ± 2e-05 µM; IC50 [8]: 0.00233 ± 0.00015 µM; IC50 [9]: 0.00044 ± 0.00016 µM; IC50 [10]: 0.0239 µM
CCCCCCCC(=O)SCC/C=C(\F)[C@@H]1CC(=O)NCc2nc(cs2)C2=N[C@@](C)(CS2)C(=O)N[C@@H](CSC)C(=O)O1 [Compound 16c, S-((Z)-4-fluoro-4-((1^2Z,2^2Z,2^4R,5R,8S)-2^4-methyl-5-((methylthio)methyl)-3,6,10-trioxo-2^4,2^5-dihydro-7-oxa-4,11-diaza-1(4,2),2(2,4)-dithiazolacyclododecaphane-8-yl)but-3-en-1-yl) octanethioate] |  |  |  |  |  |  | 2.92 ± 0.53 | 1.41 ± 0.54 | > 10 | 3.13 ± 0.5 | 0.1 ± 0.01 | 0.09 ± 0.02 | 0.25 ± 0.07 | 0.08 ± 0.02 | IC50 [19]: 1.41 to 3.13 µM
CCCCCCCC(=O)SCC/C=C(\F)[C@@H]1CC(=O)NCc2nc(cs2)C2=N[C@@](C)(CS2)C(=O)NCC(=O)O1 [Compound 16d, S-((Z)-4-fluoro-4-((1^2Z,2^2Z,2^4R,8S)-2^4-methyl-3,6,10-trioxo-2^4,2^5-dihydro-7-oxa-4,11-diaza-1(4,2),2(2,4)-dithiazolacyclododecaphane-8-yl)but-3-en-1-yl) octanethioate] |  |  |  |  |  |  | > 10 | 6.62 ± 1.86 | > 10 | > 10 |  |  |  |  | 
CCCCCCCC(=O)SCC/C=C/[C@@H]1CC(=O)NCc2nc(cs2)C2=N[C@@](C)(CS2)C(=O)N[C@@H](C(C)C)C(=O)O1 [largazole] |  |  |  |  |  |  | 0.52 ± 0.17 | 0.11 ± 0.01 | 4.75 ± 1.95 | 0.25 ± 0.17 | 0.17 ± 0.01 | 0.1 | 0.17 ± 0.02 | 0.02 | 
